Source: ChEMBL document CHEMBL1177764, “Exploration of potential prodrug approach of the bis-thiazolium salts T3 and T4 for orally delivered antimalarials” (Bioorg Med Chem Lett, 2010)

What was measured:
[1] = system: Plasmodium falciparum; assay: Antiplasmodial activity against Plasmodium falciparum; type: functional, organism-based
[2] = system: Plasmodium vinckei; assay: Antimalarial activity against Plasmodium vinckei infected in perorally dosed mice (Mus musculus); type: functional; conditions: po
[3] = system: Plasmodium vinckei; assay: Antimalarial activity against Plasmodium vinckei infected in intraperitoneally dosed mice (Mus musculus); type: functional; conditions: ip

| IC50 [1] [nM] | Compound | ED50 [2] [mg/kg] | ED50 [3] [mg/kg] |
| --- | --- | --- | --- |
| 4400 | C/C(=C1\CCOC(=S)S1)N(C=O)CCCCCCCCCCCCN(C=O)/C(C)=C1/CCOC(=S)S1 | > 30 | – |
| 1.1 | COCC/C(SC(C)=O)=C(\C)N(C=O)CCCCCCCCCCCCN(C=O)/C(C)=C(/CCOC)SC(C)=O | – | – |
| 4.3 | CCC(=O)S/C(CCOC)=C(/C)N(C=O)CCCCCCCCCCCCN(C=O)/C(C)=C(/CCOC)SC(=O)CC | 12 | < 0.1 |
| 2 | COCC/C(SC(=O)C1CC1)=C(\C)N(C=O)CCCCCCCCCCCCN(C=O)/C(C)=C(/CCOC)SC(=O)C1CC1 | 16 | – |
| 2200 | COCC/C(SC(=O)c1ccccc1C(F)(F)F)=C(\C)N(C=O)CCCCCCCCCCCCN(C=O)/C(C)=C(/CCOC)SC(=O)c1ccccc1C(F)(F)F | > 90 | > 2.5 |
| 1.6 | COCC/C(SC(=O)Cc1ccco1)=C(\C)N(C=O)CCCCCCCCCCCCN(C=O)/C(C)=C(/CCOC)SC(=O)Cc1ccco1 | 14 | – |
| 5.9 | COCC/C(SC(=O)CCC(=O)OC)=C(\C)N(C=O)CCCCCCCCCCCCN(C=O)/C(C)=C(/CCOC)SC(=O)CCC(=O)OC | 10 | 0.4 |
| 1.6 | COCC/C(SC(=O)CCC(C)=O)=C(\C)N(C=O)CCCCCCCCCCCCN(C=O)/C(C)=C(/CCOC)SC(=O)CCC(C)=O | 3 | 0.15 |
| 2.8 | COCC/C(SC(=O)C1CCCN1)=C(\C)N(C=O)CCCCCCCCCCCCN(C=O)/C(C)=C(/CCOC)SC(=O)C1CCCN1 (centres undefined) | 17 | – |
| 3.1 | COCC/C(SC(=O)Oc1ccc([N+](=O)[O-])cc1)=C(\C)N(C=O)CCCCCCCCCCCCN(C=O)/C(C)=C(/CCOC)SC(=O)Oc1ccc([N+](=O)[O-])cc1 | > 30 | – |
| 10.6 | COCC/C(SC(=O)OC(C)Cl)=C(\C)N(C=O)CCCCCCCCCCCCN(C=O)/C(C)=C(/CCOC)SC(=O)OC(C)Cl (centres undefined) | 13 | 0.11 |
| 2.7 | COCC/C(SC(=O)OCCBr)=C(\C)N(C=O)CCCCCCCCCCCCN(C=O)/C(C)=C(/CCOC)SC(=O)OCCBr | 13 | – |
| 2.2 | COCC/C(SC(=O)OCCF)=C(\C)N(C=O)CCCCCCCCCCCCN(C=O)/C(C)=C(/CCOC)SC(=O)OCCF | 3.8 | 0.1 |
| 48 | COC(=O)CCC(=O)OCC/C(SC(=O)CCC(=O)OC)=C(\C)N(C=O)CCCCCCCCCCCCN(C=O)/C(C)=C(/CCOC(=O)CCC(=O)OC)SC(=O)CCC(=O)OC | 13 | 0.5 |
| 3500 | C/C(=C(\CCOC(=O)c1ccccc1C)SC(=O)c1ccccc1C)N(C=O)CCCCCCCCCCCCN(C=O)/C(C)=C(/CCOC(=O)c1ccccc1C)SC(=O)c1ccccc1C | > 180 | > 20 |
| 2.2 | C/C(=C1\CCOC(=O)S1)N(C=O)CCCCCCCCCCCCN(C=O)/C(C)=C1/CCOC(=O)S1 | 5 | 0.25 |

Second part, the compound before the results:

| Compound | IC50 [1] [nM] | ED50 [2] [mg/kg] | ED50 [3] [mg/kg] |
| --- | --- | --- | --- |
| COCC/C(SC(=O)C(C)C)=C(\C)N(C=O)CCCCCCCCCCCCN(C=O)/C(C)=C(/CCOC)SC(=O)C(C)C | 1.1 | 11 | 0.12 |
| COCC/C(SC(=O)CC(C)C)=C(\C)N(C=O)CCCCCCCCCCCCN(C=O)/C(C)=C(/CCOC)SC(=O)CC(C)C | 2.4 | 16 | – |
| COCC/C(SC(=O)C(C)(C)C)=C(\C)N(C=O)CCCCCCCCCCCCN(C=O)/C(C)=C(/CCOC)SC(=O)C(C)(C)C | 6.7 | – | – |
| COCC/C(SC(=O)C1CCC1)=C(\C)N(C=O)CCCCCCCCCCCCN(C=O)/C(C)=C(/CCOC)SC(=O)C1CCC1 | 3.6 | – | – |
| COCC/C(SC(=O)C1CCCC1)=C(\C)N(C=O)CCCCCCCCCCCCN(C=O)/C(C)=C(/CCOC)SC(=O)C1CCCC1 | 8.2 | 17 | 0.65 |
| C/C=C/CC(=O)S/C(CCOC)=C(/C)N(C=O)CCCCCCCCCCCCN(C=O)/C(C)=C(/CCOC)SC(=O)C/C=C/C | 3.3 | 16 | – |
| COCC/C(SC(=O)c1ccccc1)=C(\C)N(C=O)CCCCCCCCCCCCN(C=O)/C(C)=C(/CCOC)SC(=O)c1ccccc1 | 1.7 | 15 | < 0.5 |
| COCC/C(SC(=O)c1ccccc1C)=C(\C)N(C=O)CCCCCCCCCCCCN(C=O)/C(C)=C(/CCOC)SC(=O)c1ccccc1C | 110 | 24 | 0.25 |
| COCC/C(SC(=O)COC)=C(\C)N(C=O)CCCCCCCCCCCCN(C=O)/C(C)=C(/CCOC)SC(=O)COC | 2.3 | 80 | 1.9 |
| COCC/C(SC(=O)C(C)(C)OC(C)=O)=C(\C)N(C=O)CCCCCCCCCCCCN(C=O)/C(C)=C(/CCOC)SC(=O)C(C)(C)OC(C)=O | 15.6 | 57 | 60.3 |
| COCC/C(SC(=O)c1ccc(CN2CCOCC2)cc1)=C(\C)N(C=O)CCCCCCCCCCCCN(C=O)/C(C)=C(/CCOC)SC(=O)c1ccc(CN2CCOCC2)cc1 | 1.5 | 90 | 3.4 |
| COCC/C(SC(=O)c1cccnc1)=C(\C)N(C=O)CCCCCCCCCCCCN(C=O)/C(C)=C(/CCOC)SC(=O)c1cccnc1 | 2.1 | < 30 | – |
| COCCc1sc[n+](CCCCCCCCCCCC[n+]2csc(CCOC)c2C)c1C.[Br-].[Br-] | – | 8.1 | 0.14 |
| CCOC(=O)S/C(CCOC)=C(/C)N(C=O)CCCCCCCCCCCCN(C=O)/C(C)=C(/CCOC)SC(=O)OCC | 2.9 | 6.3 | 0.21 |
| COCC/C(SC(=O)OC(C)C)=C(\C)N(C=O)CCCCCCCCCCCCN(C=O)/C(C)=C(/CCOC)SC(=O)OC(C)C | 6.2 | 6.8 | < 0.1 |
| CCCCOC(=O)S/C(CCOC)=C(/C)N(C=O)CCCCCCCCCCCCN(C=O)/C(C)=C(/CCOC)SC(=O)OCCCC | 5.6 | 16 | – |
| COCC/C(SC(=O)Oc1ccccc1)=C(\C)N(C=O)CCCCCCCCCCCCN(C=O)/C(C)=C(/CCOC)SC(=O)Oc1ccccc1 | 3.5 | 24 | 0.3 |
| COCC/C(SC(=O)N1CCCC1)=C(\C)N(C=O)CCCCCCCCCCCCN(C=O)/C(C)=C(/CCOC)SC(=O)N1CCCC1 | 310 | > 90 | > 5 |
| COCC/C(SC(=O)N1CCCC1=O)=C(\C)N(C=O)CCCCCCCCCCCCN(C=O)/C(C)=C(/CCOC)SC(=O)N1CCCC1=O | 29.5 | 12 | 0.9 |
| C/C(=C(\CCOC(=O)C(C)C)SC(=O)C(C)C)N(C=O)CCCCCCCCCCCCN(C=O)/C(C)=C(/CCOC(=O)C(C)C)SC(=O)C(C)C | 7 | 60 | 1.2 |
| COc1ccc(C(=O)OCC/C(SC(=O)c2ccc(OC)c(OC)c2OC)=C(\C)N(C=O)CCCCCCCCCCCCN(C=O)/C(C)=C(/CCOC(=O)c2ccc(OC)c(OC)c2OC)SC(=O)c2ccc(OC)c(OC)c2OC)c(OC)c1OC | 16.5 | > 60 | 1.8 |
| COCC/C(SC(=O)OC)=C(\C)N(C=O)CCCCCCCCCCCCN(C=O)/C(C)=C(/CCOC)SC(=O)OC | 1.85 | 1.3 | 0.072 |
| Cc1c(CCO)sc[n+]1CCCCCCCCCCCC[n+]1csc(CCO)c1C.[Br-].[Br-] [ALBITIAZOLIUM BROMIDE] | – | 13 | 0.2 |
